Assay results: US8895585B2, “Nicotinamide derivative or salt thereof” (FUJIFILM Corporation, priority 2010, dated 2014)
Like-named read-outs stand apart in the source and are kept apart here.

Tests used:
THP-1 cells = experiment: TNFα generation assay; type: cell-based, human; settings: Homo sapiens
Summary of the method: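 THP-1 cells differentiated to macrophage-like cells with 10 ng/ml IFN-γ for 2 days, preincubated with compound 30 min at room temperature, then cultured 7 h on plates coated with human IgG (10 μg/ml). Secreted TNFα measured by ELISA or AlphaLISA.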

[1] = target: T1, glutathione S-transferase (GST)-fused full-length human Syk protein (Homo sapiens, UniProt P43405); experiment: Syk enzyme assay; type: biochemical
T1 construct: (GST)-fused full-length human Syk protein; GST (glutathione S-transferase); purchased Carna Biosciences
Summary of the method: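 IC50 values come from a time-resolved FRET readout (615 and 665 nm) of substrate phosphorylation, measured after an EDTA stop and 1 h antibody binding. The kinase reaction ran 40 min at room temperature with 27 μM ATP and 0.4 μM biotin-peptide, following a 15 min compound preincubation with baculovirus-made GST-full-length human Syk.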

[2] = THP-1, THP-1 cells, Table 22, read-out: IC50 in TNFα generation assay
[3] = Syk enzyme assay, Test Example 1, read-out: IC50 of Syk-inhibitory activity
[4] = THP-1, 7 h, IFN-γ-differentiated THP-1 cells on human IgG-coated plate, cultured 7 hours, read-out: TNFα generation inhibitory activity (IC50)
[5] = read-out: Syk-inhibitory activity (IC50)

For NC(=O)c1cc(F)c(N[C@@H]2CCCC[C@@H]2N)nc1Nc1cccc2ncccc12 [Example 37-1, 6-((1R,2S)-2-aminocyclohexylamino)-5-fluoro-2-((quinolin-5-yl)amino)nicotinamide], which IC50 (THP-1 cells; [2]) is on record?
Its IC50 is less than 65 nM.

What about the IC50 [1, 3] of the same molecule?
The IC50 was less than 10 nM.

CC(C)c1nn(C)c2ccc(Nc3nc(N[C@H](CC4CC4)[C@H](C)N)c(F)cc3C(N)=O)cc12 [Example 006-507, 6-(((2R,3S)-3-amino-1-cyclopropylbutan-2-yl)amino)-5-fluoro-2-((3-isopropyl-1-methyl-1H-indazol-5-yl)amino)nicotinamide] was tested. Which IC50 (THP-1 cells; [2]) did it give?
The IC50 was 130 to 200 nM.

What about the IC50 [1, 3] of the same molecule?
The IC50 was less than 10 nM.

For CCn1ncc2cc(Nc3nc(N[C@H](c4ccc(F)cc4)[C@H](C)N)c(F)cc3C(N)=O)ccc21 [Example 006-555, 6-(((1R,2S)-2-amino-1-(4-fluorophenyl)propyl)amino)-2-((1-ethyl-1H-indazol-5-yl)amino)-5-fluoronicotinamide], which IC50 (THP-1 cells; [2]) is on record?
Its IC50 is 65 to 130 nM.

What about the IC50 [1, 3] of the same molecule?
The IC50 was less than 10 nM.

Which results are given for NC(=O)c1cc(F)c(N[C@@H]2CCCC[C@@H]2N)nc1Nc1cc(-n2ccnn2)nc2[nH]ccc12 (relative stereo) [Example 004-068, 2-((6-(1H-1,2,3-triazol-1-yl)-1H-pyrrolo[2,3-b]pyridin-4-yl)amino)-6-(cis-2-aminocyclohexylamino)-5-fluoronicotinamide]?
IC50 (THP-1 cells; [2]): 65 to 130 nM; IC50 [1, 3]: < 10 nM

What does the source list for COCCOc1cc(Nc2nc(NC3CCCCC3N)c(F)cc2C(N)=O)ccn1 (centres unmarked) [Example 002-066]?
IC50 (THP-1 cells; [2]): 130 to 200 nM; IC50 [1, 3]: < 10 nM

What does the source list for Cn1cnc2cc(Nc3nc(N[C@@H]4CCCC[C@@H]4N)c(F)cc3C(N)=O)cnc21 [Example 004-027]?
IC50 (THP-1 cells; [2]): 130 to 200 nM; IC50 [1, 3]: 10 to 50 nM

What does the source list for CCc1nn(CCOC)c2ccc(Nc3nc(N[C@@H]4CCCC[C@@H]4N)c(F)cc3C(N)=O)cc12 [Example 006-453, 6-(((1R,2S)-2-aminocyclohexyl)amino)-2-((3-ethyl-1-(2-methoxyethyl)-1H-indazol-5-yl)amino)-5-fluoronicotinamide]?
IC50 (THP-1 cells; [2]): < 65 nM; IC50 [1, 3]: < 10 nM

For CC[C@@H](Nc1nc(Nc2ccc(N3CCOCC3)nc2)c(C(N)=O)cc1F)[C@H](C)N [Example 006-265, 6-(((2S,3R)-2-aminopentan-3-yl)amino)-5-fluoro-2-((6-morpholinopyridin-3-yl)amino)nicotinamide], which IC50 (THP-1 cells; [2]) is on record?
The IC50 was 130 to 200 nM.

What about the IC50 [1, 3] of the same molecule?
The IC50 was 10 to 50 nM.

Which results are given for C[C@H](N)[C@@H](C)Nc1nc(Nc2cncc(Cl)c2)c(C(N)=O)cc1F [Example 006-216, 6-(((2R,3S)-3-aminobutan-2-yl)amino)-2-((5-chloropyridin-3-yl)amino)-5-fluoronicotinamide]?
IC50 (THP-1 cells; [2]): 65 to 130 nM; IC50 [1, 3]: 10 to 50 nM

NC(=O)c1cc(F)c(N[C@@H]2CCCC[C@@H]2N)nc1Nc1cncc(-c2cnn(Cc3ccccc3)c2)c1 (relative stereo) [Example 004-075, 6-(cis-2-aminocyclohexylamino)-2-((5-(1-benzyl-1H-pyrazol-4-yl)pyridin-3-yl)amino)-5-fluoronicotinamide] was tested. Which IC50 (THP-1 cells; [2]) did it give?
The IC50 was 130 to 200 nM.

And the IC50 [1, 3]?
The IC50 was less than 10 nM.

With COc1cc(Nc2nc(N[C@H](CC(C)C)[C@H](C)N)c(F)cc2C(N)=O)cc(OC)n1 [Example 006-409, 6-(((2S,3R)-2-amino-5-methylhexan-3-yl)amino)-2-((2,6-dimethoxypyridin-4-yl)amino)-5-fluoronicotinamide] as the molecule, how does the IC50 (THP-1 cells; [2]) read?
The IC50 was 130 to 200 nM.

What about the IC50 [1, 3] of the same molecule?
The IC50 was less than 10 nM.

How did the IC50 (THP-1 cells; [2]) turn out when Cc1cc(Nc2nc(NC3CCCCC3N)c(F)cc2C(N)=O)cnc1C (centres unmarked) [Example 002-024] was run?
Its IC50 is 130 to 200 nM.

And the IC50 [1, 3]?
Its IC50 is less than 10 nM.

For Cc1cc(Nc2nc(N[C@@H]3CCCC[C@@H]3N)c(F)cc2C(N)=O)ccn1 [Example 004-018], which IC50 (THP-1 cells; [2]) is on record?
The IC50 was 65 to 130 nM.

What about the IC50 [1, 3] of the same molecule?
The IC50 was 10 to 50 nM.

With COc1cccc(-c2cc(Nc3nc(NC4CCCCC4N)c(F)cc3C(N)=O)ccn2)c1F (centres unmarked) [Example 002-139] as the molecule, how does the IC50 (THP-1 cells; [2]) read?
Its IC50 is 65 to 130 nM.

And the IC50 [1, 3]?
The IC50 was less than 10 nM.

What does the source list for CC(C)C[C@@H](Nc1nc(Nc2ccc3ncsc3c2)c(C(N)=O)cc1F)C(N)=O [Example 012-005]?
IC50 (THP-1 cells; [2]): 130 to 200 nM; IC50 [1, 3]: 10 to 50 nM

Which results are given for NC(=O)c1cc(F)c(NC2CCCCC2N)nc1Nc1ccc2nn(Cc3ccccc3)cc2c1 (centres unmarked) [Example 002-037]?
IC50 (THP-1 cells; [2]): 130 to 200 nM; IC50 [1, 3]: < 10 nM

Which IC50 (THP-1 cells; [2]) does the source give for NC(=O)c1cc(F)c(N[C@@H]2CCCC[C@@H]2N)nc1Nc1cncc(-c2ccccc2F)c1 (relative stereo) [Example 004-143, 6-(cis-2-aminocyclohexylamino)-5-fluoro-2-((5-(2-fluorophenyl)pyridin-3-yl)amino)-nicotinamide] here?
Its IC50 is 65 to 130 nM.

And the IC50 [1, 3]?
Its IC50 is less than 10 nM.

What does the source list for NC(=O)c1cc(F)c(N[C@@H]2CCCC[C@@H]2N)nc1Nc1cccc2cnccc12 (relative stereo) [Example 004-159, 6-(cis-2-aminocyclohexylamino)-5-fluoro-2-((isoquinolin-5-yl)amino)nicotinamide]?
IC50 (THP-1 cells; [2]): 65 to 130 nM; IC50 [1, 3]: < 10 nM

Which results are given for COc1ccc(-c2cncc(Nc3nc(N[C@@H]4CCCC[C@@H]4N)c(F)cc3C(N)=O)c2)cc1 (relative stereo) [Example 004-114, 6-(cis-2-aminocyclohexylamino)-5-fluoro-2-((5-(4-methoxyphenyl)pyridin-3-yl)amino)-nicotinamide]?
IC50 (THP-1 cells; [2]): 65 to 130 nM; IC50 [1, 3]: < 10 nM

What does the source list for NCCNc1nc(Nc2ccc3ncccc3c2)c(C(N)=O)cc1F [Example 6-26, 6-((2-aminoethyl)amino)-5-fluoro-2-(quinolin-6-ylamino)nicotinamide]?
IC50 (THP-1 cells; [4]): ≤ 200 nM; IC50 [1, 5]: ≤ 1000 nM

Which IC50 (THP-1 cells; [2]) does the source give for NC(=O)c1cc(F)c(N[C@@H]2CCCC[C@@H]2N)nc1Nc1cncc(-c2ccc(N3CCOCC3)cc2)c1 (relative stereo) [Example 004-222, 6-(cis-2-aminocyclohexylamino)-5-fluoro-2-((5-(4-morpholinophenyl)pyridin-3-yl)amino)nicotinamide] here?
Its IC50 is 130 to 200 nM.

And the IC50 [1, 3]?
Its IC50 is less than 10 nM.

How did the IC50 (THP-1 cells; [2]) turn out when CCC[C@@H](Nc1nc(Nc2cc(OC)nc(OC)c2)c(C(N)=O)cc1F)[C@H](C)N [Example 006-248, 6-(((2S,3R)-2-aminohexan-3-yl)amino)-2-((2,6-dimethoxypyridin-4-yl)amino)-5-fluoronicotinamide] was run?
Its IC50 is 65 to 130 nM.

And the IC50 [1, 3]?
The IC50 was less than 10 nM.

How did the IC50 (THP-1 cells; [2]) turn out when CC[C@@H](Nc1nc(Nc2ccc3c(c2)c(C)nn3CC)c(C(N)=O)cc1F)[C@H](C)N [Example 006-525, 6-(((2S,3R)-2-aminopentan-3-yl)amino)-2-((1-ethyl-3-methyl-1H-indazol-5-yl)amino)-5-fluoronicotinamide] was run?
The IC50 was 65 to 130 nM.

And the IC50 [1, 3]?
The IC50 was less than 10 nM.

Which results are given for NC(=O)c1cc(F)c(NC2CCCCC2N)nc1Nc1ccnc(-c2ccco2)c1 (centres unmarked) [Example 002-053]?
IC50 (THP-1 cells; [2]): 65 to 130 nM; IC50 [1, 3]: < 10 nM

Which IC50 (THP-1 cells; [2]) does the source give for CCC[C@@H](Nc1nc(Nc2ccnc(-n3nccn3)c2)c(C(N)=O)cc1F)[C@H](C)N [Example 006-221, 2-((2-(2H-1,2,3-triazol-2-yl)pyridin-4-yl)amino)-6-(((2S,3R)-2-aminohexan-3-yl)amino)-5-fluoronicotinamide] here?
The IC50 was 65 to 130 nM.

What about the IC50 [1, 3] of the same molecule?
The IC50 was less than 10 nM.

Which results are given for CC(C)C[C@H](CN)Nc1nc(Nc2cncc(-n3nccn3)c2)c(C(N)=O)cc1F [Example 004-195, (R)-2-((5-(2H-1,2,3-triazol-2-yl)pyridin-3-yl)amino)-6-((1-amino-4-methylpentan-2-yl)amino)-5-fluoronicotinamide]?
IC50 (THP-1 cells; [2]): 65 to 130 nM; IC50 [1, 3]: < 10 nM

How did the IC50 (THP-1 cells; [2]) turn out when CC[C@@H](Nc1nc(Nc2ccc3cnn(C)c3c2)c(C(N)=O)cc1F)[C@H](C)N [Example 006-358, 6-(((2S,3R)-2-aminopentan-3-yl)amino)-5-fluoro-2-((1-methyl-1H-indazol-6-yl)amino)nicotinamide] was run?
The IC50 was less than 65 nM.

And the IC50 [1, 3]?
Its IC50 is less than 10 nM.

Which results are given for C[C@H](N)[C@@H](C)Nc1nc(Nc2cncc(-c3ccccc3)c2)c(C(N)=O)cc1F (racemic) [Example 006-195, 6-(((2R,3S)-3-aminobutan-2-yl)amino)-5-fluoro-2-((5-phenylpyridin-3-yl)amino)nicotinamide 6-(((2S,3R)-3-aminobutan-2-yl)amino)-5-fluoro-2-((5-phenylpyridin-3-yl)amino)-nicotinamide]?
IC50 (THP-1 cells; [2]): < 65 nM; IC50 [1, 3]: < 10 nM

For NC(=O)c1cc(F)c(N[C@@H]2CCCC[C@@H]2N)nc1Nc1cncc(N2CCCCC2)c1 (relative stereo) [Example 004-050], which IC50 (THP-1 cells; [2]) is on record?
Its IC50 is 130 to 200 nM.

What about the IC50 [1, 3] of the same molecule?
Its IC50 is 10 to 50 nM.

Which results are given for Cn1cc(-c2cncc(Nc3nc(N[C@@H]4CCCC[C@@H]4N)c(F)cc3C(N)=O)c2)cn1 (relative stereo) [Example 004-072, 6-(cis-2-aminocyclohexylamino)-5-fluoro-2-((5-(1-methyl-1H-pyrazol-4-yl)pyridin-3-yl)-amino)nicotinamide]?
IC50 (THP-1 cells; [2]): 130 to 200 nM; IC50 [1, 3]: < 10 nM

How did the IC50 (THP-1 cells; [2]) turn out when CC[C@@H](Nc1nc(Nc2cncc3ccccc23)c(C(N)=O)cc1F)[C@H](C)N [Example 006-262, 6-(((2S,3R)-2-aminopentan-3-yl)amino)-5-fluoro-2-((isoquinolin-4-yl)amino)nicotinamide] was run?
Its IC50 is less than 65 nM.

What about the IC50 [1, 3] of the same molecule?
The IC50 was less than 10 nM.

What does the source list for CCCC[C@@H](Nc1nc(Nc2cc(OC)nc(OC)c2)c(C(N)=O)cc1F)[C@H](C)N [Example 006-405, 6-(((2S,3R)-2-aminoheptan-3-yl)amino)-2-((2,6-dimethoxypyridin-4-yl)amino)-5-fluoronicotinamide]?
IC50 (THP-1 cells; [2]): 130 to 200 nM; IC50 [1, 3]: < 10 nM

Cn1nc(F)c2ccc(Nc3nc(NC4CCCCC4N)c(F)cc3C(N)=O)cc21 (centres unmarked) [Example 002-198] was tested. Which IC50 (THP-1 cells; [2]) did it give?
Its IC50 is 65 to 130 nM.

And the IC50 [1, 3]?
Its IC50 is less than 10 nM.

How did the IC50 (THP-1 cells; [4]) turn out when NC(=O)c1cc(F)c(N[C@@H]2CCCC[C@@H]2N)nc1Nc1cnc2ncccc2c1 (relative stereo) [Example 10-2, 6-(cis-2-aminocyclohexylamino)-5-fluoro-2-((1,8-naphthyridin-3-yl)amino)nicotinamide] was run?
Its IC50 is no more than 200 nM.

What about the IC50 [1, 5] of the same molecule?
Its IC50 is no more than 1000 nM.
